# Counter-ions that a name gives are not always drawn.
# Key:
# Type in all cases: biochemical
# recombinant rat PIM-3 = recombinant rat PIM-3 (Rattus norvegicus, UniProt O70444); assay: PIM-3 Assay (as Example A); settings: averaged IC50; 30 μM ATP, 3.75 μM PIM2tide, 0.5 nM PIM-3
# Procedure: (§1) The assay for the determination of PIM-1 activity is based on the incorporation of [^33P]PO4 from [γ-^33P]ATP into PIM2tide substrate and capture of the radiolabeled peptide onto a Whatman P81 (phosphocellulose) filter plate. The amount of radiolabeled product is then measured by liquid scintillation counting. The final buffer conditions were as follows: 20 mM K^+MOPS, pH 7.4, 10 mM MgCl2, 0.005% Tween-20, 1 mM DTT. Assay mixtures contained 35 μM [γ-^33P]ATP (20 μCi/mL), 7.5 μM PIM2tide and 0.25 nM PIM-1 in a total volume of 50 μL. Incubations were carried out for 60 min at 22° C. and quenched with 75 μL of 200 mM H3PO4, filtered through a Whatman P81 plate and washed (1×200 μL and 5×100 μL) with 200 mM H3PO4. Fifty μL of liquid scintillation cocktail were then added per well, and the plate was counted for 30 s/well using a TopCount NXT.
# (§2) Compounds were prepared at 50× the final concentration in DMSO by conducting 3-fold serial dilutions from a 500-μM intermediate dilution to give a 10-point dosing curve having a high dose of 10 μM. One-μL aliquots of these were then transferred to the assay mixtures above to give a final concentration of DMSO of 2%. A standard or reference compound was typically included on each assay plate to validate that plate. For each plate, percent of control (POC) values were calculated for each well. IC50 values were estimated from the POC values using a standard 4-parameter logistic model. The IC50 is defined as the concentration of inhibitor at which the POC equals 50 for the fitted curve.
# Assay was performed as described in Example A, using 30 μM [γ-^33P]ATP (20 μCi/mL), 3.75 μM PIM2tide and 0.5 nM recombinant rat PIM-3 in place of PIM-1.
# PIM-1 = PIM-1 (Homo sapiens, UniProt P11309); assay: Enzyme PIM-1 Assay ([33P]ATP incorporation into PIM2tide, filter plate); settings: averaged IC50; 35 μM ATP, 7.5 μM PIM2tide, 0.25 nM PIM-1, 60 min at 22° C.
# Chain of PIM-1 (P11309 whole entry, species assumed): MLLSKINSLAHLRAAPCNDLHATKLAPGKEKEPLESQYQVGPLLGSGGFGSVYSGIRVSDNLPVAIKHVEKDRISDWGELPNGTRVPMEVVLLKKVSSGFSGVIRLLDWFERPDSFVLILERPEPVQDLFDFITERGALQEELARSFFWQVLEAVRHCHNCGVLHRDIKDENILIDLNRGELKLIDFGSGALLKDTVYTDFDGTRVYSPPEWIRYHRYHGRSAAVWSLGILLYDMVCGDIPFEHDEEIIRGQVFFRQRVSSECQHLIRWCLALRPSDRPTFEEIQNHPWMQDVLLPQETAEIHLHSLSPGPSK
# Procedure: as §1, §2
# [1] = target: T1, GST-tagged recombinant full-length human Pim-2 (Homo sapiens, UniProt Q9P1W9); assay: PIM-2 Assay (as Example A); settings: averaged IC50; 4 μM ATP, 1.0 μM PIM2tide, 1.5 nM Pim-2
# T1 construct: GST-tagged recombinant full-length human Pim-2; GST
# T1 sequence (Q9P1W9 whole entry): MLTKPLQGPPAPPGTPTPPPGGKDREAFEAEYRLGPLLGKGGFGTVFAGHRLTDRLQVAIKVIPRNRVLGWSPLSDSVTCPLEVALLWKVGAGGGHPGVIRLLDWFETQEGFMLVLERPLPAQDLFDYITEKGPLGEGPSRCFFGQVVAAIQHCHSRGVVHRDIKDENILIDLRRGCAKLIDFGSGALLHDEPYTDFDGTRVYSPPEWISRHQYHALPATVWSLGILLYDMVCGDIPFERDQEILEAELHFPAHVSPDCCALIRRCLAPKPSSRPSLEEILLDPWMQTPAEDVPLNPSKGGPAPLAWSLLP
# Procedure: as §1, §2
# Assay was performed as described in Example A, using 4 μM [γ-^33P]ATP (20 μCi/mL), 1.0 μM PIM2tide and 1.5 nM GST-tagged recombinant full-length human Pim-2 in place of PIM-1.
IC50 (recombinant rat PIM-3) [nM],IC50 (PIM-1) [nM],IC50 [1] [nM],Compound
1.1,0.2,75,"N[C@H]1CCN([C@H](c2ccc3nnc(-c4ccc5cccc(OCC6CC6)c5n4)n3c2)C(F)(F)F)C1 (single isomer, unassigned) [Example 11, dihydrochloride]"
1.1,0.4,51,"N[C@H]1CCN([C@@H](c2ccc3nnc(-c4ccc5ccc(C6CC6)cc5n4)n3c2)C(F)(F)F)C1 (single isomer, unassigned) [Example 12]"
0.4,0.15,76,"Cn1cc(-c2ccc3ccc(-c4nnc5ccc([C@H](N6CC[C@H](N)C6)C(F)(F)F)cn45)nc3c2)cn1 (single isomer, unassigned) [Example 14, tri-hydrochloride]"
0.3,0.09,59,"Cn1cc(-c2ccc3ccc(-c4nnc5ccc([C@@H](N6CC[C@H](N)C6)C(F)(F)F)cn45)nc3c2)cn1 (single isomer, unassigned) [Example 15, tri-hydrochloride]"
38,2.85,412,"N[C@@H]1CCN([C@@H](c2ccc3nnc(-c4ccc5cccc(OCC6CC6)c5n4)n3c2)C(F)(F)F)C1 (single isomer, unassigned) [Example 23]"
6.2,0.95,> 100,"COc1cccc2ccc(-c3nnc4ccc([C@@H](N5CC[C@](N)(CF)C5)C(F)(F)F)cn34)nc12 (single isomer, unassigned) [Example 170]"
30,18.7,> 1000,"CC(C)Oc1cccc2ccc(-c3nnc4ccc([C@H](N5CCC(C)(O)C5)C(F)(F)F)cn34)nc12 (single isomer, unassigned; diastereomer 1) [Example 199]"
7.9,6.62,> 1000,"CC(C)Oc1cc(F)cc2ccc(-c3nnc4ccc([C@H](N5CCC(C)(O)C5)C(F)(F)F)cn34)nc12 (single isomer, unassigned; diastereomer 1) [Example 202, hydrochloride]"
2.1,0.54,728,"CCOc1cc2nc(-c3nnc4ccc([C@@H](N5CCC(N)(CC)C5)C(F)(F)F)cn34)ccc2cc1F (single isomer, unassigned; diastereomer 1) [Example 243, dihydrochloride]"
11,2.77,861,"CCC1(N)CCN([C@@H](c2ccc3nnc(-c4ccc5cccc(OC)c5n4)n3c2)C(F)(F)F)C1 (single isomer, unassigned; diastereomer 1) [Example 250, dihydrochloride]"
0.8,0.75,102,"CCOc1cc2nc(-c3nnc4ccc([C@H](N5CCC(N)(CC)C5)C(F)(F)F)cn34)ccc2cc1F (single isomer, unassigned; diastereomer 1) [Example 251, dihydrochloride]"

# Second part, the compound before the results:
Compound,IC50 (recombinant rat PIM-3) [nM],IC50 (PIM-1) [nM],IC50 [1] [nM]
"N[C@H]1CCN([C@@H](c2ccc3nnc(-c4ccc5cccc(OCC6CC6)c5n4)n3c2)C(F)(F)F)C1 (single isomer, unassigned) [Example 10, dihydrochloride]",12,1.84,306
"N[C@H]1CCN([C@H](c2ccc3nnc(-c4ccc5ccc(C6CC6)cc5n4)n3c2)C(F)(F)F)C1 (single isomer, unassigned) [Example 13]",1,0.31,121
"N[C@@H]1CCN([C@H](c2ccc3nnc(-c4ccc5cccc(OCC6CC6)c5n4)n3c2)C(F)(F)F)C1 (single isomer, unassigned) [Example 22]",2.9,0.25,145
"CC(C)Oc1cccc2ccc(-c3nnc4ccc(C(N5C[C@@H](O)[C@H](O)C5)C(F)(F)F)cn34)nc12 (single isomer, unassigned) [Example 82]",30,1.12,> 100
"CC(C)Oc1cccc2ccc(-c3nnc4ccc([C@@H](N5CC[C@@](N)(CF)C5)C(F)(F)F)cn34)nc12 (single isomer, unassigned) [Example 154, dihydrochloride]",4.2,0.58,> 100
"CC(C)Oc1cccc2ccc(-c3nnc4ccc([C@@H](N5CC[C@](N)(CF)C5)C(F)(F)F)cn34)nc12 (single isomer, unassigned) [Example 155, dihydrochloride]",1.3,0.34,45
"COc1cccc2ccc(-c3nnc4ccc([C@@H](N5CC[C@@](N)(CF)C5)C(F)(F)F)cn34)nc12 (single isomer, unassigned) [Example 169]",36,6.65,> 100
"COc1cccc2ccc(-c3nnc4ccc([C@@H](N5CCC(C)(O)C5)C(F)(F)F)cn34)nc12 (single isomer, unassigned; diastereomer 1) [Example 193, hydrochloride]",67,13,> 1000
"CC1(O)CCN([C@H](c2ccc3nnc(-c4ccc5cccc(C(C)(C)C)c5n4)n3c2)C(F)(F)F)C1 (single isomer, unassigned; diastereomer 1) [Example 195, hydrochloride]",53,21.3,> 1000
"Cn1cc(-c2ccc3ccc(-c4nnc5ccc([C@H](N6CCC(C)(O)C6)C(F)(F)F)cn45)nc3c2)cn1 (single isomer, unassigned; diastereomer 1) [Example 200]",3.4,1.86,137
"CCC1(N)CCN([C@H](c2ccc3nnc(-c4ccc5cccc(OC)c5n4)n3c2)C(F)(F)F)C1 (single isomer, unassigned; diastereomer 1) [Example 242, dihydrochloride]",21,4.2,> 1000
"CC(C)(C)OC(=O)N[C@@H]1CCN([C@@H](c2ccc3nnc(-c4ccc5ccc(C(=O)O)cc5n4)n3c2)C(F)(F)F)C1 [Example 85, 2-(6-((S)-1-((R)-3-(tert-butoxycarbonylamino)pyrrolidin-1-yl)-2,2,2-trifluoroethyl)-[1,2,4]triazolo[4,3-a]pyridin-3-yl)quinoline-7-carboxylic acid]",18,,
"COc1cc(F)cc2ccc(-c3nnc4ccc([C@@H](N5CC[C@H](N)C5)C(F)(F)F)cn34)nc12 [Example 115, (S)-1-((R)-2,2,2-trifluoro-1-(3-(6-fluoro-8-methoxyquinolin-2-yl)-[1,2,4]triazolo[4,3-a]pyridin-6-yl)ethyl)pyrrolidin-3-amine hydrochloride]",,0.29,> 100
"CCOc1cc2nc(-c3nnc4ccc([C@@H](N5CC[C@H](N)C5)C(F)(F)F)cn34)ccc2cc1F [Example 133, (S)-1-((R)-1-(3-(7-ethoxy-6-fluoroquinolin-2-yl)-[1,2,4]triazolo[4,3-a]pyridin-6-yl)-2,2,2-trifluoroethyl)pyrrolidin-3-amine hydrochloride]",,0.16,77
"COCCc1cc2nc(-c3nnc4ccc([C@H](N5CC[C@](C)(N)C5)C(F)(F)F)cn34)ccc2cc1F [Example 311, (S)-3-methyl-1-((S)-2,2,2-trifluoro-1-(3-(6-fluoro-7-(2-methoxyethyl)quinolin-2-yl)-[1,2,4]triazolo[4,3-a]pyridin-6-yl)ethyl)pyrrolidin-3-amine]",,,50

# From US8889704B2 (Array BioPharma Inc., priority 2011, dated 2014)
